Common to all, as to test: NCI anticancer screen, dose series, 48 h
For test [1], the system named is UACC-257 melanoma.
Test [2] concerns HCT-15 colon.
Test [3] concerns U251 CNS.
Test [4] concerns COLO 205 colon.
Test [5] has as its system MCF7 breast.
Test [6] relates to RPMI-8226 leukemia.
The test system of test [7] is SNB-75 CNS.
The test system of test [8] is SK-OV-3 ovarian.
The test system of test [9] is NCI-H460 lung.
The test system of test [10] is TK-10 renal.
Test [11] deals with HCC-2998 colon.
In test [12] the test system is M14 melanoma.
In test [13] the test system is ACHN renal.
The subject of test [14] is T-47D breast.
The test system of test [15] is OVCAR-8 ovarian.
The test system of test [16] is K-562 leukemia.
Test [17] relates to UO-31 renal.
Test [18] relates to SW-620 colon.

The structures appear in SMILES notation.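 1) Cells in 96-well plates. 2) Compound, 48 h, 5 concentrations. 3) Linear interpolation between surrounding doses. 4) Unreached endpoint = highest concentration. TGI: total growth inhibition.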 A value given as a limit tells only on which side of the number the result lay.

In PubChem BioAssay (NCI) one finds TGI data, which are given here for eight compounds.

`CCN(CCCl)c1cc(CN(C)C)cc(NC(=O)c2ccc(C(=O)Nc3cc(CN(C)C)cc(N(CC)CCCl)c3)cc2)c1`: the TGI turned out to be 1.32 µM in test [1]; 29.5 µM in [2]; 1.64 µM in [3]; 0.551 µM in test [4]; 0.241 µM in test [5]; 1.02 µM in [6]. Further, the TGI in test [7] was 0.506 µM; in test [8], 5.82 µM; in test [9] it was 1.54 µM; in [10], 2.57 µM; in test [11] it was 0.311 µM; in test [12] it was 0.926 µM. For the same compound, the TGI is 0.994 µM in test [13]; 15.4 µM in [14]; 1.63 µM in [15]; 1.6 µM in [16]; 11.6 µM in test [17]; 1.92 µM in test [18].

As to `O=C(CP(=O)(c1ccccc1)c1ccccc1)c1cccc(C(=O)CP(=O)(c2ccccc2)c2ccccc2)c1`, the TGI in test [1] was above 100 µM; in test [2], above 100 µM; in [4], above 100 µM; in test [5] it was above 100 µM; in test [6] it was above 100 µM; in test [7], 37.6 µM. Besides, the TGI in test [8] is 56.1 µM; in [9] it was above 100 µM; in test [10], above 100 µM; in test [11] it was above 100 µM; in test [12], above 100 µM; in [13] it was above 100 µM. Moreover, the TGI in test [14], in [15], in test [16], in test [17] and in test [18] was above 100 µM throughout.

As to `CC1=CC[C@H](C[C@H](C#CCCCC2OCCO2)O[Si](C(C)C)(C(C)C)C(C)C)C(=O)CC1`, the TGI in test [1], in test [2], in test [3], in test [4], in [5] and in test [6] was above 100 µM in each case. In addition, the TGI in [7], in [8], in test [9], in test [10], in test [11] and in [12] was above 100 µM in each case. The TGI in test [13], in test [14], in test [15], in test [16], in test [17] and in test [18] was above 100 µM in each case.

Turning to `O=C(/C=C/c1cccc([N+](=O)[O-])c1)N1CCN(CCOC(c2ccccc2)c2ccccc2)CC1`, the TGI in test [1] is 89.2 µM; in test [2], above 100 µM; in [4], 91.9 µM; in [5], above 100 µM; in test [6] it was 27.8 µM; in test [7] it was above 100 µM. Further, the TGI is above 100 µM in test [8]; above 100 µM in test [9]; 47.7 µM in test [10]; 55.2 µM in [11]; above 100 µM in test [12]; above 100 µM in [13]. In addition, the TGI in test [14] was above 100 µM; in [15], above 100 µM; in [16], 50.7 µM; in test [17], above 100 µM; in test [18] it was above 100 µM.

Take `C=C(C)C1CC=C(C)C(=O)C1` (configuration not stated): the TGI in test [1], in test [2], in test [3], in test [4], in test [5] and in test [6] was above 100 µM in each case. Also, the TGI in [7], in test [9], in test [10], in [11], in test [12] and in [13] was above 100 µM each time. For the same compound, the TGI in test [14], in test [15], in test [16], in test [17] and in test [18] was above 100 µM in each case.

Consider `O=C(O)c1cccc(Nc2c(C(=O)O)cccc2[N+](=O)[O-])c1`, for which the TGI in test [1], in test [2], in test [4], in test [5], in test [6] and in test [7] was above 100 µM throughout. Also, the TGI in test [8], in test [9], in test [10], in [11], in test [12] and in [13] was above 100 µM each time. The TGI in [14], in test [15], in test [16] and in test [17] was above 100 µM throughout.

For `COC(=O)c1ccccc1/C=C1\Cc2c(ccc3c2CCC3)C1=O`, the TGI in test [1], in test [2], in [3], in [4], in [5] and in test [6] was above 100 µM throughout. Besides, the TGI in test [7], in test [9], in test [10], in [11], in test [12] and in test [13] was above 100 µM in each case. Besides, the TGI in [14], in test [15], in [16], in [17] and in [18] was above 100 µM throughout.

Take `OCC1OC(NC(=S)NCCC(F)(F)C(F)(F)C(F)(F)C(F)(F)C(F)(F)C(F)(F)F)C(O)C(O)C1O` (configuration not stated): the TGI in [1], in [2], in test [3], in test [4], in test [5] and in test [6] was above 100 µM each time. Also, the TGI in [7], in test [8], in test [9], in [10], in [11] and in test [12] was above 100 µM throughout. For the same compound, the TGI in test [13], in test [14], in [16], in test [17] and in test [18] was above 100 µM throughout.
